Data: patent publication US20260224588A1, “BENZODIAZEPINONE-DERIVED INHIBITORS OF EGFR AND HER2” (The Research Foundation for the State University of New York, priority 2023, published 2026)

Target: PIK3C2G (Homo sapiens, UniProt O75747)
Experiment: KINOMEscan
Assay type: binding
Conditions: 1 μM of compound 4; read-out: POC

Sequence of PIK3C2G (O75747 whole entry): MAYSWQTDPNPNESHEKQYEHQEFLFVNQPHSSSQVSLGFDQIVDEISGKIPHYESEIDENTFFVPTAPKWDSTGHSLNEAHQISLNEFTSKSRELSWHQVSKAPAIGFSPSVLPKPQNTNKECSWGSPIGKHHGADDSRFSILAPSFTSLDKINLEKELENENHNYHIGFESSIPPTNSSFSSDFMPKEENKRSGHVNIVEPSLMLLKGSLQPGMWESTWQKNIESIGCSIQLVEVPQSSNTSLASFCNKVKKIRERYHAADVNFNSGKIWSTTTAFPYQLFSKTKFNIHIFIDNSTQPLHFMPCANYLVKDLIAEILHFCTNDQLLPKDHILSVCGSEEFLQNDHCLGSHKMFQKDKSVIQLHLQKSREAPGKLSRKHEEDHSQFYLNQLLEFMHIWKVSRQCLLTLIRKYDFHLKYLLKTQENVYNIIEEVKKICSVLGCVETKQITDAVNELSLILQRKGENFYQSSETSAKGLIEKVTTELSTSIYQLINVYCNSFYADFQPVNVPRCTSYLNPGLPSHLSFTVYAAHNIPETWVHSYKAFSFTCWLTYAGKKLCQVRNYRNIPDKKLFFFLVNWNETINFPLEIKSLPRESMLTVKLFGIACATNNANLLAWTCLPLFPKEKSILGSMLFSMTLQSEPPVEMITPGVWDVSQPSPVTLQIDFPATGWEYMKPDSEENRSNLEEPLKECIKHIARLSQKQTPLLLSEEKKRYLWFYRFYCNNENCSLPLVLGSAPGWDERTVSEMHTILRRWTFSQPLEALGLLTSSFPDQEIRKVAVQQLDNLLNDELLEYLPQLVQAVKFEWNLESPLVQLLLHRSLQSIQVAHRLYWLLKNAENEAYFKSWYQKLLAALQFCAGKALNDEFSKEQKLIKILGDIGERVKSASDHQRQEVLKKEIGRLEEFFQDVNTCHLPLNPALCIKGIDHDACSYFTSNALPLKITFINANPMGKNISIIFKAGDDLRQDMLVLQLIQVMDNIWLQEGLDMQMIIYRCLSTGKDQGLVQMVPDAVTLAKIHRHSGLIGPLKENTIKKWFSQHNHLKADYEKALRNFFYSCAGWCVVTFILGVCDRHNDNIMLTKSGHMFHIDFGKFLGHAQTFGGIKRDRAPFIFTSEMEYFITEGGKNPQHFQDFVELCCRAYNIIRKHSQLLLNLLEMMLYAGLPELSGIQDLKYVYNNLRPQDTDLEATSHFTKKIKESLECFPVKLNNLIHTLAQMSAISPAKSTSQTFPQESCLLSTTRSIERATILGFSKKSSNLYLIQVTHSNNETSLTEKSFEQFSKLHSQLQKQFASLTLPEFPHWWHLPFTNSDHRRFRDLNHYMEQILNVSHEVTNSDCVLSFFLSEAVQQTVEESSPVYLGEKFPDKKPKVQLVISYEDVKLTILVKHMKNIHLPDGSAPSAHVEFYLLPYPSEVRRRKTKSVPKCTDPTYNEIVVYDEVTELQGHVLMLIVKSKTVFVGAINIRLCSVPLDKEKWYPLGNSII

**Q.** How did the remaining binding at 1 µM turn out when C=CC(=O)Nc1ccc(OC)c(Nc2cc(-c3[nH]c(CC)nc3-c3cccc(NC(=O)c4cccc5c4NC(=O)c4ccccc4N5)c3)ccn2)c1 [Compound 4, N-(3-(5-(2-((5-Acrylamido-2-methoxyphenyl)amino)pyridin-4-yl)-2-ethyl-1H-imidazol-4-yl)phenyl)-11-oxo-10,11-dihydro-5H-dibenzo[b,e][1,4]diazepine-9-carboxamide] was run?
**A.** The remaining binding at 1 µM was 50%.
